Patent publication US12281079B2, “Quinoline derivatives, processes for their preparation and uses thereof for the treatment of cancer” (Lead Discovery Center GmbH, priority 2019, dated 2025)

Molecular target: mitochondrial RNA polymerase (POLRMT) (Mus musculus, UniProt Q8BKF1)
Experiment: Homogeneous TR-FRET assay for mitochondrial transcription activity
Type: biochemical
Conditions: homogeneous TR-FRET assay according to Example 4
Source text: The TR-FRET assay was basically conducted as described in WO2016/193231A1, especially as described in example 1 (hereby incorporated by reference). With respect to the back ground of the mitochondrial transcription it is referred to Falkenberg et al. (2002) and Posse et al. (Posse et al., 2015). The method monitors the activity of mitochondrial RNA-polymerase via detection of the formation of its product, a 407 bp long RNA sequence. Detection of the product is facilitated by hybridization of two DNA-oligonucleotide probes to specific and adjacent sequences within the RNA product sequence. Upon annealing of the probes, two fluorophores that are coupled directly to an acceptor nucleotide probe (ATT0647, 5′) or introduced via a coupled streptavidin interacting with a biotinylated donor nucleotide probe on the other side (Europium cryptate, 3′) are brought into sufficient proximity to serve as a fluorescence-donor-acceptor pair as generally described in Walters and Namchuk (2003). Thus, a FRET signal at 665 nm is generated upon excitation at 340 nm.
Briefly, the protocol described here was applied for screening and activity determination in a low-volume 384-well microtiter plate with non-binding surface. For high-throughput application in the 1536-well microtiter plate format, volumes of the reagent mixes were adjusted, maintaining the volumetric ratio. Proteins POLRMT (NM_172551.3), TFAM (NM_009360.4) and TFB2M (NM_008249.4) were diluted from their stocks to working concentrations of 150 nM, 1.8 μM and 330 nM respectively, in a dilution buffer containing 100 mM Tris-HCl pH 8.0, 200 mM NaCl, 10% (v/v) glycerole, 2 mM glutathione (GSH), 0.5 mM EDTA and 0.1 mg/mL BSA. Protein dilutions and template DNA, comprising a pUC18 plasmid encoding the mitochondrial light strand promoter, restriction linearized proximal to the promoter 3′-end (pUC-LSP), were mixed at the twofold final assay-concentration in a reaction buffer, containing 10 mM Tris-HCl pH 7.5, 10 mM MgCl2, 40 mM NaCl, 2 mM GSH, 0.01% (w/v) Tween-20 and 0.1 mg/mL BSA.
5 μL of this mix were dispensed, depending on the chosen microtiter plate format, using multi-channel pipettes or a Multidrop® dispenser (Thermo Fisher Scientific, Waltham Mass.) into the wells of a microtiter plate and incubated at room temperature (rt) for 10 min. Chemical compounds under scrutiny in the assay were applied using contact-free acoustic droplet-dispensing (Echo520® Labcyte Inc., Sunnyvale Calif.) from 10 mM compound stocks in 100% DMSO, to a final concentration of 10 μM or in serial dilution series of the required concentration range. Equal amounts of DMSO without any compound were added to positive control samples, followed by an incubation step at rt for 10 min.
The enzymatic reaction was started by the addition of 5 μL of a mix of dNTPs in reaction buffer to a final concentration of 500 μM each. No nucleotide mix was added to negative control samples. The content of the wells was mixed using a VarioTeleshaker™ (Thermo Fisher Scientific, Waltham Mass.) at 1500 rpm for 45 sec after which the microtiter plate was centrifuged at 500×g for 1 min. The samples were incubated for 2 h at rt with humidity control to avoid evaporation. The detection reagents were prepared in a buffer that was composed, such that the enzymatic reaction was terminated due to chelating of Mg-ions and increased ionic strength, containing 50 mM Tris-HCl pH 7.5, 700 mM NaCl, 20 mM EDTA, and 0.01% (w/v) Tween-20. Importantly Eu-cryptate-coupled streptavidin had to be preincubated with a 100-fold molar excess of a random sequence oligonucleotide for 10 min at rt in the dark to block unspecific binding of single stranded RNA to the protein. Subsequently, the blocked streptavidin(-Eu) was mixed with the DNA-probes on ice and kept away from light until use. […]

Sequence of mitochondrial RNA polymerase (POLRMT) (Q8BKF1 42-1207): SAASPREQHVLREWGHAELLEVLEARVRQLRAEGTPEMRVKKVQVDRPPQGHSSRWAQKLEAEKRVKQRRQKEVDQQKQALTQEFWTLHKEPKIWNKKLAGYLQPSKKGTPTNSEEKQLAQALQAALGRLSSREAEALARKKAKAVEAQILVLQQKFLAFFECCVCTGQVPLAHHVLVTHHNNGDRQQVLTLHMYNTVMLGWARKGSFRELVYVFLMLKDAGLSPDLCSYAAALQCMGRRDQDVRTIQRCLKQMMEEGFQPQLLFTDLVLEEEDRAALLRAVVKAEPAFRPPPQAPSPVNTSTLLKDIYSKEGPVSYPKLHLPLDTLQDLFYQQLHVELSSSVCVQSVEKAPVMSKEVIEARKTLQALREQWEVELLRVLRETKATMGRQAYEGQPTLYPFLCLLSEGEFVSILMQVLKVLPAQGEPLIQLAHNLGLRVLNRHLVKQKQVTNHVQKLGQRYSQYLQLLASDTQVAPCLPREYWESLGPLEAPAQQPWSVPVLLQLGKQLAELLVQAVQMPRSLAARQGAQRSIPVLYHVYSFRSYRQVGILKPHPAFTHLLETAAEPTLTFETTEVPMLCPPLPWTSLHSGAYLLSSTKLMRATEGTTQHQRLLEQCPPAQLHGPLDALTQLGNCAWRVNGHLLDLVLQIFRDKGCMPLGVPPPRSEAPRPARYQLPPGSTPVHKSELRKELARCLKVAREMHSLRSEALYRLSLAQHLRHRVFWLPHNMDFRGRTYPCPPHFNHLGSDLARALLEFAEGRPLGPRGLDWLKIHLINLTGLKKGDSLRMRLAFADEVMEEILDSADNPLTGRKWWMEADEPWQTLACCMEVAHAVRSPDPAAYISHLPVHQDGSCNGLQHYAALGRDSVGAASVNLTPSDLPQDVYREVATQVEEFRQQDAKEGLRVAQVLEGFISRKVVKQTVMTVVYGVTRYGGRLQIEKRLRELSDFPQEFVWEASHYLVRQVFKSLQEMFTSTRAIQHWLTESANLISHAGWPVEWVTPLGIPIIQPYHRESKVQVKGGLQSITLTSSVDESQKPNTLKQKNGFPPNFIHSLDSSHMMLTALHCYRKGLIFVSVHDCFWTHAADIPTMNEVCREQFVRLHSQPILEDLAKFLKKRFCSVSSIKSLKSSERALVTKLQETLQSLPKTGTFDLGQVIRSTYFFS

SMILES	IC50 [nM]
CC(Oc1ccc2c(-c3ccccc3Cl)ccnc2c1)C(=O)N1CCC[C@H](C(=O)O)C1 (mixture of isomers) [Compound 23, rac-(3S)-1-[2-[[4-(2-chlorophenyl)-7-quinolyl]oxy]propanoyl]piperidine-3-carboxylic acid]	20 to 100
CC(C)NC(=O)C(C)Oc1ccc2c(-c3ccc(F)cc3Cl)ccnc2n1 (racemic) [Compound 109, 2-[[5-(2-chloro-4-fluoro-phenyl)-1,8-naphthyridin-2-yl]oxy]-N-isopropyl-propanamide]	1000 to 10000
CCC(Oc1ccc2c(-c3ccccc3Cl)ccnc2c1)C(=O)N1CCC[C@H](CC(=O)O)C1 (mixture of isomers) [Compound 140, 2-[rac-(3R)-1-[2-[[4-(2-chlorophenyl)-7-quinolyl]oxy]butanoyl]-3-piperidyl]acetic acid]	20 to 100
Cc1cccc(C)c1-c1ccnc2cc(O[C@H](C)C(=O)N3CCCC(CS(N)(=O)=O)C3)ccc12 (mixture of isomers) [Compound 190, [1-[rac-(2R)-2-[[4-(2,6-dimethylphenyl)-7-quinolyl]oxy]propanoyl]-3-piperidyl]methanesulfonamide]	< 20
CCOC(=O)C[C@H]1CCCN(C(=O)[C@@H](C)Oc2ccc3c(-c4c(C)cccc4C)ccnc3c2)C1 [Compound 6, ethyl 2-[(3R)-1-[(2R)-2-[[4-(2,6-dimethylphenyl)-7-quinolyl]oxy]propanoyl]-3-piperidyl]acetate]	< 20
COC(=O)C[C@H]1CCN(C(=O)[C@@H](C)Oc2ccc3c(-c4ccc(F)cc4Cl)ccnc3c2)C1 [Compound 37, methyl 2-[(3R)-1-[(2R)-2-[[4-(2-chloro-4-fluoro-phenyl)-7-quinolyl]oxy]propanoyl]pyrrolidin-3-yl]acetate]	100 to 1000
Cc1ccccc1-c1cc(Cl)nc2cc(O[C@H](C)C(=O)O)ccc12 [Compound 43, (2R)-2-[[2-chloro-4-(o-tolyl)-7-quinolyl]oxy]propanoic acid]	100 to 1000
C[C@@H](Oc1ccc2c(-c3ccc(F)cc3Cl)ccnc2c1)C(=O)O [Compound 44, (R)-2-((4-(2-chloro-4-fluorophenyl)quinolin-7 yl)oxy)propanoic acid]	100 to 1000
CCOC(=O)c1ccc(NC(=O)[C@@H](C)Oc2ccc3c(-c4ccc(F)cc4Cl)ccnc3c2)cc1 [Compound 51, ethyl 4-[[(2R)-2-[[4-(2-chloro-4-fluoro-phenyl)-7-quinolyl]oxy]propanoyl]amino]benzoate]	100 to 1000
COC(=O)C1CC(NC(=O)[C@@H](C)Oc2ccc3c(-c4ccc(F)cc4Cl)ccnc3c2)C1 (stereo partly drawn) [Compound 54, methyl 3-[[(2R)-2-[[4-(2-chloro-4-fluoro-phenyl)-7-quinolyl]oxy]propanoyl]amino]cyclobutanecarboxylate]	100 to 1000
CCOC(=O)C1CCN(C(=O)[C@@H](C)Oc2ccc3c(-c4ccc(F)cc4Cl)ccnc3c2)CC1 [Compound 58, ethyl 1-[(2R)-2-[[4-(2-chloro-4-fluoro-phenyl)-7-quinolyl]oxy]propanoyl]piperidine-4-carboxylate]	100 to 1000
C[C@@H](Oc1ccc2c(-c3cccc(F)c3Cl)ccnc2c1)C(=O)N1CCC[C@H](CC(=O)O)C1 [Compound 65, 2-[(3R)-1-[(2R)-2-[[4-(2-chloro-3-fluoro-phenyl)-7-quinolyl]oxy]propanoyl]-3-piperidyl]acetic acid]	20 to 100
COC(=O)C[C@@H]1CCN(C(=O)[C@@H](C)Oc2ccc3c(-c4ccc(F)cc4Cl)ccnc3c2)C1 [Compound 67, methyl 2-[(3S)-1-[(2R)-2-[[4-(2-chloro-4-fluoro-phenyl)-7-quinolyl]oxy]propanoyl]pyrrolidin-3-yl]acetate]	100 to 1000
COC(=O)[C@@H]1CCCN(C(=O)[C@@H](C)Oc2ccc3c(-c4ccc(F)cc4Cl)ccnc3c2)C1 [Compound 71, methyl (3R)-1-[(2R)-2-[[4-(2-chloro-4-fluoro-phenyl)-7-quinolyl]oxy]propanoyl]piperidine-3-carboxylate]	100 to 1000
CCC(=O)N1CCN(C(=O)[C@@H](C)Oc2ccc3c(-c4ccccc4Cl)cc(Cl)nc3c2)CC1 [Compound 72, (2R)-2-[[2-chloro-4-(2-chlorophenyl)-7-quinolyl]oxy]-1-(4-propanoylpiperazin-1-yl)propan-1-one]	100 to 1000
CCOC(=O)[C@H]1CCN(C(=O)[C@@H](C)Oc2ccc3c(-c4ccc(F)cc4Cl)ccnc3c2)C1 [Compound 75, ethyl (3S)-1-[(2R)-2-[[4-(2-chloro-4-fluoro-phenyl)-7-quinolyl]oxy]propanoyl]pyrrolidine-3-carboxylate]	100 to 1000
CC(C)OC(=O)COc1ccc2c(-c3ccccc3Cl)ccnc2c1 [Compound 82, isopropyl 2-[[4-(2-chlorophenyl)-7-quinolyl]oxy]acetate]	1000 to 10000
Cc1cc(F)cc(C)c1-c1ccnc2cc(O[C@H](C)C(=O)N3CCC[C@H](C(=O)O)C3)ccc12 [Compound 84, (3S)-1-[(2R)-2-[[4-(4-fluoro-2,6-dimethyl-phenyl)-7-quinolyl]oxy]propanoyl]piperidine-3-carboxylic acid]	< 20
C[C@@H](Oc1ccc2c(-c3ccccc3Cl)cc(Cl)nc2c1)C(=O)N1CCN(C(=O)CN)CC1 [Compound 85, (2R)-1-[4-(2-aminoacetyl)piperazin-1-yl]-2-[[2-chloro-4-(2-chlorophenyl)-7-quinolyl]oxy]propan-1-one]	1000 to 10000
CCOC(=O)[C@H]1CCCN(C(=O)COc2ccc3c(-c4ccccc4Cl)ccnc3c2)C1 [Compound 87, ethyl (3S)-1-[2-[[4-(2-chlorophenyl)-7-quinolyl]oxy]acetyl]piperidine-3-carboxylate]	1000 to 10000
CCOC(=O)C[C@@H]1CCCN(C(=O)[C@@H](C)Oc2ccc3c(-c4ccc(F)cc4Cl)ccnc3c2)C1 [Compound 89, ethyl 2-[(3S)-1-[(2R)-2-[[4-(2-chloro-4-fluoro-phenyl)-7-quinolyl]oxy]propanoyl]-3-piperidyl]acetate]	1000 to 10000
C[C@@H](Oc1ccc2c(-c3ccccc3Cl)cc(F)nc2c1)C(=O)O [Compound 90, (2R)-2-[[4-(2-chlorophenyl)-2-fluoro-7-quinolyl]oxy]propanoic acid]	1000 to 10000
C[C@@H](Oc1ccc2c(-c3ccc(F)cc3Cl)cc(Cl)nc2c1)C(=O)O [Compound 91, (2R)-2-[[2-chloro-4-(2-chloro-4-fluoro-phenyl)-7-quinolyl]oxy]propanoic acid]	1000 to 10000
CCOC(=O)C[C@H]1CCCN(C(=O)[C@@H](C)Oc2ccc3c(-c4ccccc4Cl)cc(Cl)nc3c2)C1 [Compound 92, ethyl 2-[(3R)-1-[(2R)-2-[[2-chloro-4-(2-chlorophenyl)-7-quinolyl]oxy]propanoyl]-3-piperidyl]acetate]	1000 to 10000
CCOC(=O)C[C@H]1CCCN(C(=O)[C@@H](C)Oc2ccc3c(-c4ccc(F)cc4Cl)cc(Cl)nc3c2)C1 [Compound 93, ethyl 2-[(3R)-1-[(2R)-2-[[2-chloro-4-(2-chloro-4-fluoro-phenyl)-7-quinolyl]oxy]propanoyl]-3-piperidyl]acetate]	1000 to 10000
CCOC(=O)[C@H]1CCCN(C(=O)[C@@H](C)Oc2ccc3c(-c4ccc(F)cc4C)cc(Cl)nc3c2)C1 [Compound 94, ethyl (3S)-1-[(2R)-2-[[2-chloro-4-(4-fluoro-2-methyl-phenyl)-7-quinolyl]oxy]propanoyl]piperidine-3-carboxylate]	1000 to 10000
